# In US7846928B2, “Substituted pyrazolopyridines and salts thereof, pharmaceutical compositions comprising same, methods of preparing same and uses of same” (Bayer Schering Pharma AG, priority 2006, dated 2010):
# Experiments:
# Tie2 [1] = target: T1, Tie2 (Homo sapiens, UniProt Q02763); assay: Tie2 ELISA assay (assay 1): cellular Tie2 autophosphorylation in Tie2-transfected CHO cells stimulated by angiopoietin-2; format: cell-based; design: expressed in transfected cells; host or cells: CHO (DHFR-deficient), stably transfected: CHO Tie2/DHFR; conditions: CHO Tie2/DHFR cells, Ang2 stimulated, Tie2 autophosphorylation sandwich-ELISA; pIC50 = -log IC50 molar; read-out: Tie 2 activity (assay 1)
# Procedure: Cellular activity of compounds of the present invention as inhibitors of Tie2 kinase activity was measured employing a Tie2 ELISA assay as described in the following paragraphs. Herein CHO cell-cultures, which are stably transfected by known techniques with Tie2 using DHFR deficiency as selection marker, are stimulated by angiopoietin-2. The specific autophosphorylation of Tie2 receptors is quantified with a sandwich-ELISA using anti-Tie2 antibodies for catch and anti-phosphotyrosine antibodies coupled to HRP for detection.
# • 96 well tissue culture plate, sterile, Greiner • 96 well FluoroNunc plate MaxiSorp Surface C, Nunc • 96 well plate polypropylene for compound dilution in DMSO • CHO Tie2/DHFR (transfected cells) • PBS−; PBS++, DMSO • MEM alpha Medium with Glutamax-I without Ribonucleosides and • Deoxyribonucleosides (Gibco #32561-029) • with 10% FCS after dialysis! and 1% PenStrep • Lysis buffer: 1 Tablet “Complete” protease inhibitor • 1 cap Vanadate (1 mL>40 mg/mL; working solution 2 mM) • ad 50 mL with Duschl-Puffer • pH 7.6 • Anti-Tie2-antibody 1:425 in Coating Buffer pH 9.6 • Stock solution: 1.275 mg/mL>working: 3 μg/mL • PBST: 2 bottles PBS(10×)+10 ml Tween, fill up with VE-water • RotiBlock 1:10 in VE-water • Anti-Phosphotyrosine HRP-Conjugated 1:10000 in 3% TopBlock • 3% TopBlock in PBST • BM Chemiluminescence ELISA Substrate (POD) • solution B1:100 solution A • SF9 cell culture medium • Ang2-Fc in SF9 cell culture medium Cell Experiment: • Dispense 5×10^4 cells/well/98 μL in 96 well tissue culture plate • Incubate at 37° C./5% CO2 • After 24 h add compounds according to desired concentrations • Add also to control and stimulated values without compounds 2 μL DMSO • And mix for a few min at room temperature • Add 100 μL Ang2-Fc to all wells except control, which receives insect medium • Incubate 20 min at 37° C. • Wash 3× with PBS++ • Add 100 μl Lysis buffer/well and shake a couple of min at room temperature • Store lysates at 20° C. before utilizing for the ELISA Performance of Sandwich-ELISA • Coat 96 well FluoroNunc Plate MaxiSorp Surface C with anti-Tie2 mAb • 1:425 in Coating buffer pH 9.6; 100 μL/well overnight at 4° C. • Wash 2× with PBST • Block plates with 250 μL/well RotiBlock 1:10 in VE-water • Incubate for 2 h at room temperature or overnight at 4° C. shaking • Wash 2× in PBST • Add thawed lysates to wells and incubate overnight shaking at 4° C. • Wash 2× with PBST • Add 100 μL/well anti-Phosphotyrosine HRP-Conjugated 1:10000 in 3% • TopBlock (3% TopBlock in PBST) and incubate overnight under shaking • Wash 6× with PBST • Add 100 μL/well BM Chemiluminescence ELISA Substrate (POD) • solutions 1 und 2 (1:100) • Determine luminescence with the LumiCount. Assay 2: Tie-2-Kinase HTRF-Assay without Kinase Preactivation
# Target sequence in this assay (Q02763 23-1124): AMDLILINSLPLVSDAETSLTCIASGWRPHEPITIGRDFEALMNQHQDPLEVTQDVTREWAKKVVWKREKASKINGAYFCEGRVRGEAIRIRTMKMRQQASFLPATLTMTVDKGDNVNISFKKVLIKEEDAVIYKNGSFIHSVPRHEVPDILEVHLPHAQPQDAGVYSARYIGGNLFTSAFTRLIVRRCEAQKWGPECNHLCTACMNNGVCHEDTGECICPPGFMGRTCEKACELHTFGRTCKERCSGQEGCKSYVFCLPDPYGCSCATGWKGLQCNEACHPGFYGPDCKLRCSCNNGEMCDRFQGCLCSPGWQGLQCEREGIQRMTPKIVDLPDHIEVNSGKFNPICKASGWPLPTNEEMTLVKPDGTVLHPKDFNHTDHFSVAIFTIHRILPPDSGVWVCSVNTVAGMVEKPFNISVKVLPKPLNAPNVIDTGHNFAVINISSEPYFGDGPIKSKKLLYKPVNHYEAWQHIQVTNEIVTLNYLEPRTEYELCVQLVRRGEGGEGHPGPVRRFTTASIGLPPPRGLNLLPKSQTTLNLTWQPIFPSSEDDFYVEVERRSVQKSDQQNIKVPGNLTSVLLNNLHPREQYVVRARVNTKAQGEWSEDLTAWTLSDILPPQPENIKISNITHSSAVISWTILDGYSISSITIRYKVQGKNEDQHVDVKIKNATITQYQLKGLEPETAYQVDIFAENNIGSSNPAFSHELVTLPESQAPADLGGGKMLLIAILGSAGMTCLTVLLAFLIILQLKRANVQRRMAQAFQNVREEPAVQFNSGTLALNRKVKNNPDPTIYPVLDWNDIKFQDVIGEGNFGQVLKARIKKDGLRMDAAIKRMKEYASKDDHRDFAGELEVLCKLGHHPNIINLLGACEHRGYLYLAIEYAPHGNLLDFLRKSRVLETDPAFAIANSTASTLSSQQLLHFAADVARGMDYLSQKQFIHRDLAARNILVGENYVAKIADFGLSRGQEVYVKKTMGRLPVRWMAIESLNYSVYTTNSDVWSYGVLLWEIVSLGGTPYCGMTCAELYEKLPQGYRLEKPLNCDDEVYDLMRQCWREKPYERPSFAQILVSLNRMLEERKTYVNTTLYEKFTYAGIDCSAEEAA
# Tie2 [2] = target: T1, Tie2; assay: Tie-2-Kinase HTRF-Assay without kinase preactivation (assay 2); format: biochemical; design: fusion protein of GST and the intracellular domains of Tie-2; GST; made in house; host or cells: insect cells (Hi-5); conditions: GST-Tie-2 without preactivation, 10 μM ATP; pIC50 = -log IC50 molar
# From the text: Tie2-inhibitory activity of compounds of the present invention was quantified employing two Tie2 HTRF assay as described in the following paragraphs.
# A recombinant fusion protein of GST and the intracellular domains of Tie-2, expressed in insect cells (Hi-5) and purified by Glutathion-Sepharose affinity chromatography was used as kinase. Alternatively, commercially available GST-Tie2-fusion protein (Upstate Biotechnology, Dundee, Scotland) can be used As substrate for the kinase reaction the biotinylated peptide biotin-Ahx-EPKDDAYPLYSDFG (C-terminus in amid form) was used which can be purchased e.g. from the company Biosynthan GmbH (Berlin-Buch, Germany). Detection of phosphorylated product is achieved specifically by a trimeric detection complex consisting of the phosphorylated substrate, streptavidin-XLent (SA-XLent) which binds to biotin, and Europium Cryptate-labeled anti-phosphotyrosine antibody PT66 which binds to phosphorylated tyrosine.
# Tie-2 (3.5 ng/measurement point) was incubated for 60 min at 22° C. in the presence of 10 μM adenosine-tri-phosphate (ATP) and 1 μM substrate peptide (biotin-Ahx-EPKDDAYPLYSDFG-NH2) with different concentrations of test compounds (0 μM and concentrations in the range 0.001-20 μM) in 5 μl assay buffer [50 mM Hepes/NaOH pH 7, 10 mM MgCl2, 0.5 mM MnCl2, 1.0 mM dithiothreitol, 0.01% NP40, protease inhibitor mixture (“Complete w/o EDTA” from Roche, 1 tablet per 2.5 ml), 1% (v/v) dimethylsulfoxide]. The reaction was stopped by the addition of 5 μl of an aqueous buffer (25 mM Hepes/NaOH pH 7.5, 0.28% (w/v) bovine serum albumin) containing EDTA (90 mM) and the HTRF (Homogeneous Time Resolved Fluorescence) detection reagents streptavidine-XLent (0.2 μM, from Cis Biointernational, Marcoule, France) and PT66-Eu-Chelate (0.3 ng/μl; a europium-chelate labelled anti-phospho-tyrosine antibody from Perkin Elmer).
# The resulting mixture was incubated 1 h at 22° C. to allow the binding of the biotinylated phosphorylated peptide to the streptavidine-XLent and the PT66-Eu-Chelate. Subsequently the amount of phosphorylated substrate peptide was evaluated by measurement of the resonance energy transfer from the PT66-Eu-Chelate to the streptavidine-XLent. Therefore, the fluorescence emissions at 620 nm and 665 nm after excitation at 350 nm was measured in a HTRF reader, e.g. a Rubystar (BMG Labtechnologies, Offenburg, Germany) or a Viewlux (Perkin-Elmer). The ratio of the emissions at 665 nm and at […] was taken as the measure for the amount of phosphorylated substrate peptide. The data were normalised (enzyme reaction without inhibitor=0% inhibition, all other assay components but no enzyme=100% inhibition) and IC50 values were calculated by a 4 parameter fit using an inhouse software.
# Target sequence in this assay (Q02763 770-1124 limits assumed): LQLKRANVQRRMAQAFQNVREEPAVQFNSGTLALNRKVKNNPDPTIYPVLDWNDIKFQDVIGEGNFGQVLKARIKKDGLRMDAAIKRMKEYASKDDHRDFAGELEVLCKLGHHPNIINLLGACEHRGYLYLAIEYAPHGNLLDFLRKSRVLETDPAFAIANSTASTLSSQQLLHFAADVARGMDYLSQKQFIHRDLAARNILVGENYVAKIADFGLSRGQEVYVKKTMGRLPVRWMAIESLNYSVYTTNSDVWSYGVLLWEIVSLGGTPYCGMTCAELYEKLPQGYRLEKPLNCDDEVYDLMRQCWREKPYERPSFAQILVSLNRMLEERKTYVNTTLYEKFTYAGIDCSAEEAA
IC50 (Tie2 [1]) [nM],IC50 (Tie2 [2]) [nM],Structure (SMILES)
< 501,< 501,"CN1CCN(Cc2ccc(NC(=O)Nc3ccc(-c4ccnc5[nH]ncc45)cc3)cc2C(F)(F)F)CC1 [1.33, 1-[4-(4-Methyl-piperazin-1-yl-methyl)-3-trifluoromethyl-phenyl]-3-[4-(1H-pyrazolo[3,4-b]pyridin-4-yl)-phenyl]-urea]"
< 501,< 501,"COc1ccc(C(F)(F)F)cc1NC(=O)Nc1ccc(-c2cc(C)nc3c2cnn3C)cc1 [2.7, 1-[4-(1,6-Dimethyl-1H-pyrazolo[3,4-b]pyridin-4-yl)-phenyl]-3-(2-methoxy-5-trifluoromethyl-phenyl)-urea]"

# Second part, the compound before the results:
Structure (SMILES),IC50 (Tie2 [1]) [nM],IC50 (Tie2 [2]) [nM]
"CC(C)c1cc(-c2ccc(NC(=O)Nc3cccc(C(F)(F)F)c3)cc2)c2cn[nH]c2n1 [1.2, 1-[4-(6-Isopropyl-1H-pyrazolo[3,4-b]pyridin-4-yl)-phenyl]-3-(3-trifluoromethyl-phenyl)-urea]",< 501,< 501
"Cc1ccc(F)c(NC(=O)Nc2ccc(-c3ccnc4c3cnn4C)cc2)c1 [1.7, 1-(2-Fluoro-5-methyl-phenyl)-3-[4-(1-methyl-1H-pyrazolo[3,4-b]pyridin-4-yl)-phenyl]-urea]",< 501,< 501
"Cn1ncc2c(-c3ccc(NC(=O)Nc4cc(C(F)(F)F)ccc4F)cc3)ccnc21 [1.8, 1-(2-Fluoro-5-trifluoromethyl-phenyl)-3-[4-(1-methyl-1H-pyrazolo[3,4-b]-pyridin-4-yl)-phenyl]-urea]",< 501,< 501
"Cn1ncc2c(-c3ccc(NC(=O)Nc4cccc(C(F)(F)F)c4)cc3)cc(C3CCC3)nc21 [1.37, 1-[4-(6-Cyclobutyl-1-methyl-1H-pyrazolo[3,4-b]pyridin-4-yl)-phenyl]-3-(3-trifluoromethyl-phenyl)-urea]",< 501,< 501
